Data set [1] addresses T1, Proteasome Macropain subunit MB1 (Homo sapiens, UniProt P28074).
T1 sequence (P28074 whole entry): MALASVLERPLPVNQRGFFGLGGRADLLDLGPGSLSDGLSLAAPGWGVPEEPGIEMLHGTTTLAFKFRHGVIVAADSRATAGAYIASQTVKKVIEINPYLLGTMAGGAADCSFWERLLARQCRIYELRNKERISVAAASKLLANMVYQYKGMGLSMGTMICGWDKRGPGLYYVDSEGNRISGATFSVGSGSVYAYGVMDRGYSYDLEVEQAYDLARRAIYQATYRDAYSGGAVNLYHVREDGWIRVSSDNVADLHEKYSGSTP
Description: Inhibition of chymotrypsin like activity of human 20S proteasome using Suc-Leu-Leu-Val-Tyr-AMC as substrate preincubated for 10 mins followed by substrate addition measured after 1 hr by spectrofluorimetric analysis. The note with it: read-out: IC50.

Data set [2] is described as follows: Cytotoxicity against human RPMI8226 cells assessed as cell viability after 72 hrs by CellTiter 96 aqueous one solution cell proliferation assay. In kind it is functional, RPMI-8226.
Data set [3] can be described thus: Cytotoxicity against human ARH77 cells assessed as cell viability after 72 hrs by CellTiter 96 aqueous one solution cell proliferation assay. In kind it is functional, ARH-77.
The nature of data set [4]: Cytotoxicity against human U266B1 cells assessed as cell viability after 72 hrs by CellTiter 96 aqueous one solution cell proliferation assay. In kind it is functional, U-266.
Data set [5] in a line: Elimination half life in Sprague-Dawley rat at 1 mg/kg, caudal iv by LC/MS/MS analysis. The note with it: in vivo, read-out: beta t1/2 (converted). In kind it is ADME, organism-based.
Data set [6] deals with Rattus norvegicus. Description: Elimination half life in Sprague-Dawley rat at 0.2 mg/kg, ig through feeding tube by LC/MS/MS analysis. In kind it is ADME, organism-based. The note with it: in vivo, po.
The test system of data set [7] is Rattus norvegicus. Description: Tmax in Sprague-Dawley rat at 0.2 mg/kg, ig through feeding tube by LC/MS/MS analysis. In kind it is ADME, organism-based. The note with it: in vivo, po.
Data set [8] can be described thus: Cmax in Sprague-Dawley rat at 1 mg/kg, caudal iv by LC/MS/MS analysis. In kind it is ADME, organism-based. The arrangement: dose 1 mg/kg, route intravenous. The following applies: in vivo.
Data set [9] concerns Rattus norvegicus. The data set can be described thus: Cmax in Sprague-Dawley rat at 0.2 mg/kg, ig through feeding tube by LC/MS/MS analysis. In kind it is ADME, organism-based. Set-up: dose 0.2 mg/kg, route intragastric. The following applies: in vivo, po.
Data set [10] can be described thus: AUClast in Sprague-Dawley rat at 1 mg/kg, caudal iv by LC/MS/MS analysis. The note with it: in vivo. In kind it is ADME, organism-based. Set-up: dose 1 mg/kg, route intravenous, time 0 - last.
A short description of data set [11]: AUClast in Sprague-Dawley rat at 0.2 mg/kg, ig through feeding tube by LC/MS/MS analysis. In kind it is ADME, organism-based. The arrangement: dose 0.2 mg/kg, route intragastric, time 0 - last. The following applies: in vivo, po.
A short description of data set [12]: AUC(0 to infinity) in Sprague-Dawley rat at 1 mg/kg, caudal iv by LC/MS/MS analysis. In kind it is ADME, organism-based. The arrangement: dose 1 mg/kg, route intravenous, time infinity. The following applies: in vivo.
Data set [13] relates to Rattus norvegicus. Description: AUC(0 to infinity) in Sprague-Dawley rat at 0.2 mg/kg, ig through feeding tube by LC/MS/MS analysis. Set-up: dose 0.2 mg/kg, route intragastric, time infinity. The following applies: in vivo, po. In kind it is ADME, organism-based.
Data set [14] is described as follows: MRTlast in Sprague-Dawley rat at 1 mg/kg, caudal iv by LC/MS/MS analysis. In kind it is ADME, organism-based. The note with it: in vivo.
A short description of data set [15]: MRTlast in Sprague-Dawley rat at 0.2 mg/kg, ig through feeding tube by LC/MS/MS analysis. In kind it is ADME, organism-based. The note with it: in vivo, po.
Data set [16] can be described thus: Cell cycle arrest in human U266 cells assessed as accumulation at S phase at 10 nM by propidium iodide/RNase staining based flow cytometric analysis (reference value: 29.47 %). In kind it is functional. The following applies: U-266.
Data set [17] is described as follows: Cell cycle arrest in human U266 cells assessed as accumulation at G1 phase at 10 nM by propidium iodide/RNase staining based flow cytometric analysis (reference value: 58.21 %). The following applies: U-266. In kind it is functional.
A short description of data set [18]: Cell cycle arrest in human U266 cells assessed as accumulation at G2/M phase at 10 nM by propidium iodide/RNase staining based flow cytometric analysis (reference value: 12.33 %). In kind it is functional. The following applies: U-266.

As usually defined, the IC50 is the concentration that inhibits the measured activity by half. A word on the Tmax: it is the time at which the peak concentration occurs. Usually Cmax stands for the peak of the concentration-time curve. A word on the AUC(0-t): it is the area under the concentration-time curve up to a stated or last time point. The AUC(0-inf) is the area under the concentration-time curve extrapolated to infinity. A high value points to more exposure. As usually defined, the AUC is the area under the concentration-time curve, a measure of exposure. For orientation: MRT last means a mean duration of stay, worked out from the concentration-time curve. Regarding `COc1ccc(C[C@H](NC(=O)c2cc(Cl)ccc2Cl)C(=O)N[C@@H](CC(C)C)B(O)O)c(OC)c1`, in [1], the IC50 came to 4.6 nM. Besides, the Activity in data set [2] was 37.78%; in data set [3] it was 14.58%; in data set [4] it was 18.66%; in [16], 34.8%; in [17] it was 43.7%; in [18], 21.5%. The half-life in [5] is 7.24 h. Further, the “beta t1/2” value in [6] is 0.2 h. Moreover, in data set [7], the Tmax was 1.8 min. Moreover, the highest concentration (Cmax) in [8] was determined as 7.83 ng/mL; in data set [9], 245 ng/mL. Besides, the area under the curve AUC(0-t) in data set [10] came to 47.9 ng·h/mL; in data set [11], 407 ng·h/mL. Further, the AUC(0-inf) in data set [12] was 83 ng·h/mL. Besides, the AUC in data set [13] is 408 ng·h/mL. The mean residence time (MRT last) turned out to be 8.44 h in data set [14] and 6.9 h in data set [15].

These data come from ChEMBL document CHEMBL3792352, “3D-QSAR-aided design, synthesis, in vitro and in vivo evaluation of dipeptidyl boronic acid proteasome inhibitors and mechanism studies” (Bioorg Med Chem, 2016).
